Experimental data from PubChem BioAssay AID1549 (Sanford-Burnham Center for Chemical Genomics, 2009).
Calls of active or inactive are those of the source. The rule behind the calls is not given here.

Target: Influenza A virus M2 proton channel (A/TW/4845/1999 H1N1)
Assay: NMR binding screen, influenza A virus M2 proton channel, Kd (AID 1549)
Conditions: M2 protein

Row | Structure (SMILES) | Kd
1 | O=C(CSc1ccc(Cl)cc1)N1CCOCC1 | > 4 mM (inactive)
2 | COc1cc(-c2coc3cc(OC)c(OC)c(OC)c3c2=O)cc(OC)c1OC | > 4 mM (inactive)
3 | O=C1CCC(=O)N1c1cccnc1 | > 4 mM (inactive)
4 | CN(C(N)=O)C1(C)CCS(=O)(=O)C1 (configuration not stated) | > 4 mM (inactive)
5 | CC(C)C(=O)NCC(c1ccco1)N1CCOCC1 (configuration not stated) | > 4 mM (inactive)
6 | Cc1cc(=O)[nH]c(NCC(=O)O)n1 | > 4 mM (inactive)
7 | C=CC(C1=CC(=O)C(OC)=CC1=O)c1ccc(O)cc1 (configuration not stated) | > 4 mM (inactive)
8 | Nc1nc(SCc2ccc3c(c2)OCO3)n[nH]1 | > 4 mM (inactive)
9 | Cn1nc(-c2ccccc2)cc1N | > 4 mM (inactive)
10 | O=C(CC1Nc2ccccc2NC1=O)Nc1ccc(O)cc1 (configuration not stated) | > 4 mM (inactive)
11 | CCCc1cc(=O)[nH]c2nnc(SCC(C)=O)n12 | > 4 mM (inactive)
12 | Cc1nc2ccc(NC(=O)N3CCSCC3)cc2s1 | > 4 mM (inactive)
13 | CSc1ccccc1NC(=O)c1ccncc1 | > 4 mM (inactive)
14 | COC(=O)Nc1c(C)n(C)n(-c2ccccc2)c1=O | > 4 mM (inactive)
15 | Cc1cc(C)n(-c2nc(C)nc(N)n2)n1 | > 4 mM (inactive)
16 | Cc1nn(C)c(Cl)c1S(=O)(=O)N1CCOCC1 | > 4 mM (inactive)
17 | C[C@@H]1CC[C@]2(C(=O)O)CC[C@]3(C)C(=CCC4[C@@]5(C)CC[C@H](O)C(C)(C)C5CC[C@]43C)C2[C@H]1C (some centres not stated) | > 4 mM (inactive)
18 | O=C(CC1CCCCC1)N1CCN(c2ccccn2)CC1 | > 4 mM (inactive)
19 | CSc1nc(C)cc(-n2ccc(=O)[nH]c2=O)n1 | > 4 mM (inactive)
20 | Oc1cc(O)c2c(c1)O[C@H](c1ccc(O)c(O)c1)[C@@H](O)C2 | > 4 mM (inactive)
21 | CC(=O)c1cc(CN2C(=O)c3ccccc3C2=O)cs1 | > 4 mM (inactive)
22 | C=CC(C1=CC(=O)C(OC)=CC1=O)c1ccccc1 (configuration not stated) | > 4 mM (inactive)
23 | Cc1n[nH]c(C)c1NC(=O)c1cccc(F)c1 | > 4 mM (inactive)
24 | Nc1c(F)c(F)nc(F)c1F | > 4 mM (inactive)

Row | Structure (SMILES) | Kd
25 | NC(=O)C1CCN(CN2C(=O)c3ccccc3C2=O)CC1 | > 4 mM (inactive)
26 | CN(C)c1ccc(CNn2cnnc2)cc1 | > 4 mM (inactive)
27 | OC1CCN(Cc2ccc[nH]2)CC1 | > 4 mM (inactive)
28 | C=C1C2CC[C@@]3(C)[C@H](c4ccoc4)OC(=O)C[C@]13O[C@H]1CC(O)C(C)(C)C(CC(=O)OC)[C@@]21C (some centres not stated) | > 4 mM (inactive)
29 | COc1cc(C/C=C/c2ccccc2)c(OC)cc1O | > 4 mM (inactive)
30 | Cc1nc(-c2ccc(CO)s2)cs1 | > 4 mM (inactive)
31 | Cc1n[nH]c(=O)c2ncn(C)c12 | > 4 mM (inactive)
32 | Cc1cc(C(=O)Nc2nnc(C(F)(F)F)s2)no1 | > 4 mM (inactive)
33 | Oc1ccc2c(c1)OCC1(O)Cc3cc(O)c(O)cc3C21 (configuration not stated) | > 4 mM (inactive)
34 | Nc1ccc(O)cn1 | > 4 mM (inactive)
35 | CC(C)c1ccccc1NC(=O)c1cnccn1 | > 4 mM (inactive)
36 | COc1ccc(-c2cc(=O)c3c(O)cc(O)c(-c4cc(-c5cc(=O)c6c(O)cc(O)cc6o5)ccc4OC)c3o2)cc1 | > 4 mM (inactive)
37 | CCc1noc(C)c1C(=O)N1CCCC1 | > 4 mM (inactive)
38 | O=C(Nc1ccc2c(c1)OCO2)c1cccs1 | > 4 mM (inactive)
39 | O=C(NC1CSCC1O)c1ccccc1 (configuration not stated) | > 4 mM (inactive)
40 | NC(=O)c1ccc(N2C(=O)CCC2=O)cc1Cl | > 4 mM (inactive)
41 | NC(=O)C1CCN(C(=S)c2cccs2)CC1 | > 4 mM (inactive)
42 | Cc1nc2ccccc2c(=O)n1N1C(=O)CCCC1=O | > 4 mM (inactive)
43 | O=C(NC(=S)NN1CCOCC1)c1cccs1 | > 4 mM (inactive)
44 | O=c1[nH]cc(S(=O)(=O)N2CCc3ccccc32)c(=O)[nH]1 | > 4 mM (inactive)
45 | Nc1nc(-c2ccc(Cl)cc2)nn1C(=O)c1cccnc1 | > 4 mM (inactive)
46 | OCc1ccc2occc2c1 | > 4 mM (inactive)
47 | O=c1[nH]c2c(c(=O)n1C1CCCCC1)CCC2 | > 4 mM (inactive)
